Test systems include M14; HT-29; HCT-15; SR; U-251; HOP-92; SNB-78; K562; SK-MEL-2; EKVX; SW-620; RXF 393; NCI-H460; A498; SF-295; HCC 2998.
What all share (experiment): growth of human tumour cells (NCI), 48 h

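Five concentrations, 48 hours, 96-well plates. Here, GI50 denotes the concentration required for 50% inhibition of growth.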 Calls of active or inactive are those of the source. No stated cut-off is given here; in the data, active = GI50 up to about 1.1 µM and inactive = higher.

With `CC1=CC(=O)NP(=O)(Oc2ccc(Cl)cc2)N1` (stereo not given), the GI50 in the test with M14 is > 100 µM (inactive); in the test with HT-29 it was > 100 µM (inactive); in the test with HCT-15 it was above 100 µM; in the test on SR it was > 100 µM (inactive); in the test with U-251 it was > 100 µM (inactive); in the test with HOP-92 it was > 100 µM (inactive). The GI50 with SNB-78 is > 100 µM (inactive); with K562 it was 89.3 µM (inactive); in the test on SK-MEL-2 it was > 100 µM (inactive); in the test with EKVX it was > 100 µM (inactive); in the test with SW-620, > 100 µM (inactive); with RXF 393, > 100 µM (inactive). Besides, the GI50 in the test on NCI-H460, with A498 and in the test on SF-295 was > 100 µM (inactive) in each case.

On to `C/C(=N\N(c1ccccc1)c1ccccc1)c1c(O)cc(C)oc1=O`, for which the GI50 with HCC 2998 is > 100 µM (inactive); in the test with M14, > 100 µM (inactive); in the test on HT-29 it was > 100 µM (inactive); with HCT-15, 71.3 µM; with SR, 56.9 µM (inactive); in the test with U-251 it was 22.4 µM (inactive). The GI50 in the test on HOP-92 was 46.3 µM (inactive); in the test on SNB-78, > 100 µM (inactive); in the test on K562 it was 62.7 µM (inactive); in the test on SK-MEL-2 it was > 100 µM (inactive); in the test on EKVX it was > 100 µM (inactive); with SW-620, > 100 µM (inactive). The GI50 in the test with NCI-H460 was 46.5 µM (inactive); with A498 it was > 100 µM (inactive); in the test on SF-295, > 100 µM (inactive).

As for `CC1=C(/C(C)=N/NS(=O)(=O)c2ccc(C)cc2)Sc2ccccc2N1`, the GI50 in the test on HCC 2998 is > 100 µM (inactive); with M14 it was > 100 µM (inactive); in the test with HT-29 it was 98.6 µM (inactive); in the test on HCT-15, above 100 µM; in the test on SR it was 59.7 µM (inactive); in the test with U-251, 47.9 µM (inactive). Further, the GI50 is 81.8 µM (inactive) in the test with HOP-92; > 100 µM (inactive) with SNB-78; 37.7 µM (inactive) with K562; 94.2 µM (inactive) in the test on SK-MEL-2; 68.7 µM (inactive) in the test with EKVX; > 100 µM (inactive) in the test on SW-620. Also, the GI50 was > 100 µM (inactive) in the test with RXF 393, > 100 µM (inactive) with NCI-H460, > 100 µM (inactive) in the test with A498 and 50.5 µM (inactive) with SF-295.

As for `O=[N+]([O-])c1cccc(C2SCc3nc4ccccc4n32)c1` (stereo not given), the GI50 in the test on HT-29 is > 100 µM (inactive); in the test with SR, 82.4 µM (inactive); with U-251 it was > 100 µM (inactive); with HOP-92 it was 19 µM (inactive); in the test with SNB-78, > 100 µM (inactive); in the test on K562 it was 49.5 µM (inactive). For the same molecule, the GI50 was > 100 µM (inactive) with SK-MEL-2; 66.2 µM (inactive) with EKVX; > 100 µM (inactive) in the test on SW-620; 73.5 µM (inactive) in the test with RXF 393; > 100 µM (inactive) in the test on NCI-H460; 77.6 µM (inactive) in the test with A498. Besides, the GI50 with SF-295 was 73.5 µM (inactive).

On to `N#CC1C2CCC3(CC2CCN1C(=O)c1ccccc1)OCCO3` (stereo not given), for which the GI50 in the test with HCC 2998 was > 100 µM (inactive); with M14, > 100 µM (inactive); with HT-29 it was > 100 µM (inactive); with HCT-15, above 100 µM; in the test with SR it was > 100 µM (inactive); in the test with U-251 it was > 100 µM (inactive). Also, the GI50 in the test with HOP-92 is > 100 µM (inactive); in the test with SNB-78, > 100 µM (inactive); in the test on K562, > 100 µM (inactive); in the test on SK-MEL-2, 2.37 µM (inactive); in the test on EKVX, > 100 µM (inactive); in the test with SW-620 it was > 100 µM (inactive). Also, the GI50 with RXF 393, in the test with NCI-H460, in the test on A498 and in the test with SF-295 was > 100 µM (inactive) throughout.

In the case of `Cc1cc(C(=O)NCCN(C)C)c2nc3ccccc3nc2c1`, the GI50 is 6.38 µM (inactive) in the test on HCC 2998; 4.98 µM (inactive) in the test with M14; 2.67 µM (inactive) with HT-29; 2.9 µM with HCT-15; 0.453 µM (active) in the test with SR; 5.82 µM (inactive) with U-251. Further, the GI50 in the test on HOP-92 is 1.06 µM (active); in the test on SNB-78, 12.8 µM (inactive); in the test on K562, 2.05 µM (inactive); in the test with SK-MEL-2, 4.33 µM (inactive); in the test on EKVX, 8.26 µM (inactive); in the test on SW-620, 1.97 µM (inactive). Also, the GI50 in the test on RXF 393 was 5.37 µM (inactive); in the test on A498, 3.92 µM (inactive); in the test with SF-295, 4.55 µM (inactive).

As to `CCCCCCCCCCCC(=O)OCC1OC(n2cc(F)c(=O)[nH]c2=O)C(NC(=O)OCc2ccccc2)C(O)C1O` (stereo not given), the GI50 is 18.4 µM (inactive) in the test on HCC 2998; 19.6 µM (inactive) in the test on M14; 16.1 µM (inactive) in the test with HT-29; 19.7 µM in the test on HCT-15; 19.1 µM (inactive) in the test on SR; 19 µM (inactive) in the test with U-251. The GI50 was 22.4 µM (inactive) in the test on HOP-92; 28.9 µM (inactive) with SNB-78; 21.7 µM (inactive) in the test with K562; 19.1 µM (inactive) with SK-MEL-2; 30.5 µM (inactive) in the test with EKVX; 20.6 µM (inactive) in the test on SW-620. The GI50 was 27.2 µM (inactive) in the test on RXF 393, 17.6 µM (inactive) in the test on NCI-H460, 20.1 µM (inactive) in the test with A498 and 27.9 µM (inactive) in the test with SF-295.

In the case of `Cc1cccc(C(=O)O)c1C(=O)c1cccc2ccccc12`, the GI50 is > 100 µM (inactive) in the test with HCC 2998; > 100 µM (inactive) in the test on M14; > 100 µM (inactive) with HT-29; 37.7 µM in the test with HCT-15; > 100 µM (inactive) in the test with SR; > 100 µM (inactive) in the test on U-251. The GI50 with SNB-78 is > 100 µM (inactive); in the test with K562, 65 µM (inactive); with SK-MEL-2, 98.2 µM (inactive); in the test with EKVX it was > 100 µM (inactive); in the test with SW-620, > 100 µM (inactive); in the test on RXF 393, > 100 µM (inactive). The GI50 in the test with NCI-H460 is > 100 µM (inactive); in the test on A498, 88.3 µM (inactive); in the test on SF-295 it was > 100 µM (inactive).

On to `O=C(CN(Cc1ccccc1)Cc1ccccc1)N1CCc2c([nH]c3ccccc23)C1c1cccnc1` (stereo not given), for which the GI50 in the test on HCC 2998 was 13.2 µM (inactive); in the test with M14, 3.66 µM (inactive); in the test with HT-29 it was 5.57 µM (inactive); with HCT-15 it was 5.64 µM; in the test on SR, 5.28 µM (inactive); in the test on U-251 it was 6.37 µM (inactive). Moreover, the GI50 in the test with HOP-92 was 2.79 µM (inactive); in the test on SNB-78, 15.8 µM (inactive); with K562 it was 3.17 µM (inactive); in the test on EKVX, 7.71 µM (inactive); in the test on SW-620, 5.65 µM (inactive); in the test on NCI-H460, 5.58 µM (inactive). The GI50 with A498 is 16.7 µM (inactive); with SF-295, 6.64 µM (inactive).

For `Cc1cccc(CC(C)(C)C)c1NC(=O)C(=O)C(C(=O)c1ccc2ccccc2c1)C1OC(=O)c2ccccc21` (stereo not given), the GI50 was 12.1 µM (inactive) in the test with HCC 2998; 27.2 µM (inactive) in the test with M14; 20.2 µM (inactive) with HT-29; 15.3 µM in the test on HCT-15; 3.72 µM (inactive) with SR; 4.79 µM (inactive) in the test with U-251. For the same molecule, the GI50 with HOP-92 was 1.14 µM (inactive); with SNB-78, 11.5 µM (inactive); in the test with SK-MEL-2, 14.4 µM (inactive); in the test on EKVX it was 20.7 µM (inactive); with SW-620, 6.78 µM (inactive); with RXF 393, 3.4 µM (inactive). Moreover, the figures for the GI50 in the test on NCI-H460, with A498 and with SF-295 were 4.13 µM (inactive), 13.2 µM (inactive) and 4.55 µM (inactive), respectively.
